Our source for the inhibition and IC50 values is patent US20170275275A1, “BENZENESULFONAMIDES USEFUL AS SODIUM CHANNEL INHIBITORS” (PFIZER INC., priority 2014, published 2017).

pIC50: −log10 of the molar value. Structures can show the parent of a compound that is named as a salt. Where only a bound is given, the exact number is not on record here.

T1 sequence (Q15858 whole entry): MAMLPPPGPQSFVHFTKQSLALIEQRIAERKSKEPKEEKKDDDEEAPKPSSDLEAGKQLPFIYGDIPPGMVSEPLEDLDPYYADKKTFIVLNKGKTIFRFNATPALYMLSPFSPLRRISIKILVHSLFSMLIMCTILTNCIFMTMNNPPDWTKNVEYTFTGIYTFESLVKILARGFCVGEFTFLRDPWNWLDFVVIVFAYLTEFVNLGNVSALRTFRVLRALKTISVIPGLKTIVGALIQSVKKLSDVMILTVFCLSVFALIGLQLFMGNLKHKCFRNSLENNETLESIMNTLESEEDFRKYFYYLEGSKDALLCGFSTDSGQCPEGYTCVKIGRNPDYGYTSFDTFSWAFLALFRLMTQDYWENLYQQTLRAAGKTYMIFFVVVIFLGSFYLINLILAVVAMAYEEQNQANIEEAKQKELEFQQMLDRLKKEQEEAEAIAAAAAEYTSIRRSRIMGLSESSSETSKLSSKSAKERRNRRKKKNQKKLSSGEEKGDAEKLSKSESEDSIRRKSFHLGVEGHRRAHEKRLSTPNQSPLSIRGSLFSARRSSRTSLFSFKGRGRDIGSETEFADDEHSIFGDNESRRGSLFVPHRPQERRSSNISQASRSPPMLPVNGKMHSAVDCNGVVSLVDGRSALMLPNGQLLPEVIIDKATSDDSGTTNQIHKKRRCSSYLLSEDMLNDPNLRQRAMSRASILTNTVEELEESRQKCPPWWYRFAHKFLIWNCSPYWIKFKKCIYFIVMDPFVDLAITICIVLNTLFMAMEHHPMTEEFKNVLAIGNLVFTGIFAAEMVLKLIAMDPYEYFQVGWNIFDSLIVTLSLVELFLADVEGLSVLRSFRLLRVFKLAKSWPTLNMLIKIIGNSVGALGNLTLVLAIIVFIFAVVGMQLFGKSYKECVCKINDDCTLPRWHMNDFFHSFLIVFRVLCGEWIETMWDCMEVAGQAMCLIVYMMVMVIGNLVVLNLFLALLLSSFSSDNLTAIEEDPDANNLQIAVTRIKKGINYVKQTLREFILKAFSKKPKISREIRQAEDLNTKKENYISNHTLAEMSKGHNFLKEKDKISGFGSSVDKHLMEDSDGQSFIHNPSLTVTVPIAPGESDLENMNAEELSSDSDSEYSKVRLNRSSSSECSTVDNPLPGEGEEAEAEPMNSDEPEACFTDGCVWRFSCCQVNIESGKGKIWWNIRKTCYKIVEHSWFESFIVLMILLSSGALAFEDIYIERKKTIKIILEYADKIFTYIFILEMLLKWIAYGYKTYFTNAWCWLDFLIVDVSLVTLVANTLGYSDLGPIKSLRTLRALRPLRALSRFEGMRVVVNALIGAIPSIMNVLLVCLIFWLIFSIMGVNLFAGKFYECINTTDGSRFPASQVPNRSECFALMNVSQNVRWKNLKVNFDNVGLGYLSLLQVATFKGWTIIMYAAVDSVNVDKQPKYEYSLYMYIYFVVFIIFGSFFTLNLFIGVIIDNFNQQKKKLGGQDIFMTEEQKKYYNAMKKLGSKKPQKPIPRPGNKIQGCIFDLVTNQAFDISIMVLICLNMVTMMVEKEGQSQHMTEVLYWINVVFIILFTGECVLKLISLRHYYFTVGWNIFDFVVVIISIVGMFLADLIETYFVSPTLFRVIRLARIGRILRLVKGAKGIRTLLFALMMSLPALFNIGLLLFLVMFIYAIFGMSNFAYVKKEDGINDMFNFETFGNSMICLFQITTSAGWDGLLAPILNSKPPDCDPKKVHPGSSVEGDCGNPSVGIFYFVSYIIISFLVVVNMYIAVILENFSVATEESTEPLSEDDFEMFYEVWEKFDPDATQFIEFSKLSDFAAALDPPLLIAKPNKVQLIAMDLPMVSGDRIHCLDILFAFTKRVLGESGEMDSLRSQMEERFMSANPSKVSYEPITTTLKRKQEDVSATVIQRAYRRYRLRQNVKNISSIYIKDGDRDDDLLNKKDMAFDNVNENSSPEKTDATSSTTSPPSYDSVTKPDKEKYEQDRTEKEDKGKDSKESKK

One test addresses T1, Nav1.7 (or SCN9A) channel (Homo sapiens, UniProt Q15858).
T1 construct: expressed in transfected cells
The test is described as follows: Nav1.7 (hSCN9A) channel block, PatchXpress (PX) whole-cell electrophysiology in stably transfected HEK cells. The class given is cell-based. Conditions: HEK293; Nav1.7, PatchXpress, 30 nM; read-out: % inhibition at 30 nM dose. As for the experimental part: The ability of the compounds of formula (I) to block the Nav1.7 (or SCN9A) channel was measured using the assay described below.
Human Embryonic Kidney (HEK) cells were transfected with an hSCN9A construct using lipofectamine reagent (Invitrogen), using standard techniques. Cells stably expressing the hSCN9A constructs were identified by their resistance to G-418 (400 μg/ml). Clones were screened for expression using the whole-cell voltage-clamp technique.
HEK cells stably transfected with hSCN9A were maintained in DMEM medium supplemented with 10% heat-inactivated fetal bovine serum and 400 μg/ml G-418 in an incubator at 37° C. with a humidified atmosphere of 10% CO2. For HTS, cells were harvested from flasks by trypsinization and replated in an appropriate multi-well plate (typically 96 or 384 wells/plate) such that confluence would be achieved within 24 hours of plating. Cells were typically used for electrophysiological experiments within 24 to 72 hours after plating.
For conventional whole-cell voltage clamp experiments cells were removed from the culture flask by brief trypsinization and re-plated at low density onto glass cover slips. Cover slips containing HEK cells expressing hSCN9A were placed in a bath on the stage of an inverted microscope and perfused (approximately 1 ml/minutes) with extracellular solution of the following composition: 138 mM NaCl, 2 mM CaCl2, 5.4 mM KCl, 1 mM MgCl2, 10 mM glucose, and 10 mM HEPES, pH 7.4, with NaOH. […] The osmolarity of the extracellular and intracellular solutions was 300 mOsm/kg and 295 mOsm/kg, respectively. All recordings were made at room temperature (22-24° C.) using AXOPATCH 200B amplifiers and PCLAMP software (Axon Instruments, Burlingame, Calif.). hSCN9A currents in HEK cells were measured using the whole-cell configuration of the patch-clamp technique (Hamill et al., 1981). Uncompensated series resistance was typically 2 to 5 mega ohms and >85% series resistance compensation was routinely achieved. […] Current records were acquired at 20 to 50 KHz and filtered at 5 to 10 KHz.
HEK cells stably transfected with hSCN9A were viewed under Hoffman contrast optics and placed in front of an array of flow pipes emitting either control or compound-containing extracellular solutions.
The voltage-dependence of inactivation was determined by applying a series of depolarizing prepulses (8 sec long in 10 mV increments) from a negative holding potential. The voltage was then immediately stepped to 0 mV to assess the magnitude of the sodium current. Currents elicited at 0 mV were plotted as a function of prepulse potential to allow estimation of the voltage at which 50% of the channels were inactivated (midpoint of inactivation or V1/2). Compounds were tested for their ability to inhibit hSCN9A sodium channels by activating the channel with a 20 msec voltage step […] to 0 mV following an 8 second conditioning prepulse to the empirically determined V1/2. Compound effect (% inhibition) was determined by difference in current amplitude before and after application of test compounds. For ease of comparison, “estimated IC-50” (EIC50) values were calculated from single point electrophysiology data by the following equation, (tested concentration, nM)×(100-% inhibition/% inhibition). Inhibition values <20% and >80% were excluded from the calculation.
Electrophysiological assays were conducted with PatchXpress 7000 hardware and associated software (Molecular Devices Corp). All assay buffers and solutions were identical to those used in conventional whole-cell voltage clamp experiments described above. hSCN9A cells were grown as above to 50%-80% confluency and harvested by trypsinization. Trypsinized cells were washed and resuspended in extracellular buffer at a concentration of 1×10^6 cells/ml. The onboard liquid handling facility of the PatchXpress was used for dispensing cells and application of test compounds.
Consider `O=S(=O)(Nc1cscn1)c1cc(Cl)c(Oc2ccc(-c3cccc(C(F)(F)F)c3)cc2-c2ccnc(CNCCC3CCNCC3)c2)cc1F` [Example 2, 5-Chloro-2-fluoro-4-{[3-(2-{[(2-piperidin-4-ylethyl)amino]methyl}pyridin-4-yl)-3′-(trifluoromethyl)biphenyl-4-yl]oxy}-N-1,3-thiazol-4-ylbenzenesulfonamide], for which the inhibition at 0.03 µM came out at 10.7%.

Staying with this test, now noted: estimated IC50 from single point electrophysiology data; PatchXpress platform; HEK cells expressing hSCN9A; clamped at V1/2 of inactivation; read-out: Nav1.7 EIC50.
Regarding `CC(=O)N1CCC(CCNCc2cc(-c3cc(-c4cccc(C(F)(F)F)c4)ccc3Oc3ccc(S(=O)(=O)Nc4ncns4)cc3C#N)ccn2)CC1` [Example 1, 4-({3-[2-({[2-(1-Acetylpiperidin-4-yl)ethyl]amino}methyl)pyridin-4-yl]-3′-(trifluoromethyl)biphenyl-4-yl}oxy)-3-cyano-N-1,2,4-thiadiazol-5-ylbenzenesulfonamide], the pIC50 is 8.24.

Consider `O=S(=O)(Nc1cscn1)c1cc(Cl)c(Oc2ccc(-c3cccc(C(F)(F)F)c3)cc2-c2ccnc(CNCCC3CCNCC3)c2)cc1F` [Example 2, 5-Chloro-2-fluoro-4-{[3-(2-{[(2-piperidin-4-ylethyl)amino]methyl}pyridin-4-yl)-3′-(trifluoromethyl)biphenyl-4-yl]oxy}-N-1,3-thiazol-4-ylbenzenesulfonamide], for which the pIC50 is below 7.52.

In the case of `N#Cc1cc(S(=O)(=O)Nc2ncns2)ccc1Oc1ccc(-c2ccccc2)cc1-c1cccc(C(=O)NCCN2CCNCC2)c1` [Example 3, 6′-{2-cyano-4-[(1,2,4-thiadiazol-5-ylamino)sulfonyl]phenoxy}-N-(2-piperazin-1-ylethyl)-1,1′:3′,1″-terphenyl-3-carboxamide], the pIC50 is 9.00.

As for `N#Cc1cc(S(=O)(=O)Nc2ncns2)ccc1Oc1ccc(-c2ccccc2)cc1-c1cccc(CNCCC2CCNCC2)c1` [Example 5, 3-Cyano-4-[(3″-{[(2-piperidin-4-ylethyl)amino]methyl}-1,1′:3′,1″-terphenyl-4′-yl)oxy]-N-1,2,4-thiadiazol-5-ylbenzenesulfonamide sodium salt], the pIC50 is 8.82.

Regarding `COCCOCCOCCOC(=O)NCc1cc(-c2cc(-c3cccc(C(F)(F)F)c3)ccc2Oc2ccc(S(=O)(=O)Nc3ncns3)cc2C#N)ccn1` [Example 8, 2-[2-(2-methoxyethoxy)ethoxy]ethyl [(4-{4-[2-cyano-4-(1,2,4-thiadiazol-5-ylsulfamoyl)phenoxy]-3′-(trifluoromethyl)biphenyl-3-yl}pyridin-2-yl)methyl]carbamate triethylammonium salt], the pIC50 was 8.47.

For the compound `COCCOCCOCCOCCNC(=O)NCc1cc(-c2cc(-c3cccc(C(F)(F)F)c3)ccc2Oc2ccc(S(=O)(=O)Nc3ncns3)cc2C#N)ccn1` [Example 9, 3-cyano-4-((3-(2-(3-oxo-7,10,13,16-tetraoxa-2,4-diazaheptadecyl)pyridin-4-yl)-3′-(trifluoromethyl)-[1,1′-biphenyl]-4-yl)oxy)-N-(1,2,4-thiadiazol-5-yl)benzenesulfonamide triethylammonium salt], the pIC50 is 7.96.

Regarding `COCCOCCOCCOCCNCCOCc1cc(-c2cc(-c3cccc(C(F)(F)F)c3)ccc2Oc2ccc(S(=O)(=O)Nc3ncns3)cc2C#N)ccn1` [Example 10, 4-((3-(2-(2,8,11,14,17-pentaoxa-5-azaoctadecyl)pyridin-4-yl)-3′-(trifluoromethyl)-[1,1′-biphenyl]-4-yl)oxy)-3-cyano-N-(1,2,4-thiadiazol-5-yl)benzenesulfonamide], the pIC50 was 8.33.

Take `COCCOCCOCCOCCNC(=O)OCc1cc(-c2cc(-c3cccc(C(F)(F)F)c3)ccc2Oc2ccc(S(=O)(=O)Nc3ncns3)cc2C#N)ccn1` [Example 11, (4-(4-(4-(N-(1,2,4-thiadiazol-5-yl)sulfamoyl)-2-cyanophenoxy)-3′-(trifluoromethyl)-[1,1′-biphenyl]-3-yl)pyridin-2-yl)methyl (2,5,8,11-tetraoxatridecan-13-yl)carbamate]: the pIC50 was 7.98.

As to `COCCOCCOCCOCCOCc1cc(-c2cc(-c3cccc(C(F)(F)F)c3)ccc2Oc2ccc(S(=O)(=O)Nc3ncns3)cc2C#N)ccn1` [Example 13, 3-cyano-4-({3-[2-(2,5,8,11,14-pentaoxapentadec-1-yl)pyridin-4-yl]-3′-(trifluoromethyl)biphenyl-4-yl}oxy)-N-(1,2,4-thiadiazol-5-yl)benzenesulfonamide], the pIC50 was 7.89.

For the compound `COCCOCCOCCOCCNC(=O)COCc1cc(-c2cc(-c3cccc(C(F)(F)F)c3)ccc2Oc2ccc(S(=O)(=O)Nc3ncns3)cc2C#N)ccn1` [Example 14, 2-((4-(4-(4-(N-(1,2,4-thiadiazol-5-yl)sulfamoyl)-2-cyanophenoxy)-3′-(trifluoromethyl)-[1,1′-biphenyl]-3-yl)pyridin-2-yl)methoxy)-N-(2,5,8,11-tetraoxatridecan-13-yl)acetamide], the pIC50 was 8.30.

Take `CC(=O)N1CCC(CCNCc2cccc(-c3cc(-c4ccccc4)ccc3Oc3ccc(S(=O)(=O)Nc4ncns4)cc3C#N)c2)CC1` [Example 16, 4-{[3″-({[2-(1-Acetylpiperidin-4-yl)ethyl]amino}methyl)-1,1′:3′,1″-terphenyl-4′-yl]oxy}-3-cyano-N-1,2,4-thiadiazol-5-ylbenzenesulfonamide]: the pIC50 is 9.05.

Consider `COCCOCCOCCOCCOC1CN(Cc2cc(-c3cc(-c4cccc(C(F)(F)F)c4)ccc3Oc3ccc(S(=O)(=O)Nc4ncns4)cc3C#N)ccn2)C1` [Example 20, hemi trifluoroacetate salt], for which the pIC50 is 9.00.

`COCCOCCOCCOCCO[C@H]1CCN(Cc2cc(-c3cc(-c4cccc(C(F)(F)F)c4)ccc3Oc3ccc(S(=O)(=O)Nc4ncns4)cc3C#N)ccn2)C1` [Example 22, (S)-4-((3-(2-((3-((2,5,8,11-tetraoxatridecan-13-yl)oxy)pyrrolidin-1-yl)methyl)pyridin-4-yl)-3′-(trifluoromethyl)-[1,1′-biphenyl]-4-yl)oxy)-3-cyano-N-(1,2,4-thiadiazol-5-yl)benzenesulfonamide hemi-trifluoroacetate salt]: the pIC50 was 8.59.

As to `COCCOCCOCCOCCOC1CCN(Cc2cc(-c3cc(-c4cccc(C(F)(F)F)c4)ccc3Oc3ccc(S(=O)(=O)Nc4ncns4)cc3C#N)ccn2)CC1` [Example 23, 4-((3-(2-((4-((2,5,8,11-tetraoxatridecan-13-yl)oxy)piperidin-1-yl)methyl)pyridin-4-yl)-3′-(trifluoromethyl)-[1,1′-biphenyl]-4-yl)oxy)-3-cyano-N-(1,2,4-thiadiazol-5-yl)benzenesulfonamide trifluoroacetate salt], the pIC50 was 8.30.

`COCCOCCOCCOCCOCCOCCOCCOCCOCCOCCOCCOCCC(=O)N1CCN(c2cc(-c3cc(-c4ccc(C(F)(F)F)cc4)ccc3Oc3ccc(S(=O)(=O)Nc4ncns4)cc3C#N)ccn2)CC1` [Example 24, 4-((3-(2-(4-(2,5,8,11,14,17,20,23,26,29,32,35-dodecaoxaoctatriacontan-38-oyl)piperazin-1-yl)pyridin-4-yl)-4′-(trifluoromethyl)-[1,1′-biphenyl]-4-yl)oxy)-3-cyano-N-(1,2,4-thiadiazol-5-yl)benzenesulfonamide]: the pIC50 was 7.87.

Take `COCCOCCOCCOCCOCCOCCOCCOCCOCCOCCOCCOCCC(=O)NCc1cc(-c2cc(-c3cccc(C(F)(F)F)c3)ccc2Oc2cc(F)c(S(=O)(=O)Nc3nncs3)cc2Cl)ccn1` [Example 27, N-[(4-{4-[2-chloro-5-fluoro-4-(1,3,4-thiadiazol-2-ylsulfamoyl)phenoxy]-3′-(trifluoromethyl)biphenyl-3-yl}pyridin-2-yl)methyl]-2,5,8,11,14,17,20,23,26,29,32,35-dodecaoxaoctatriacontan-38-amide]: the pIC50 is 7.33.

As to `COCCOCCOCCOCCOCCOCCOCCOCCOCCOCCOCCOCCC(=O)NCc1cc(-c2cc(-c3cccc(C(F)(F)F)c3)ccc2Oc2cc(F)c(S(=O)(=O)Nc3cscn3)cc2Cl)ccn1` [Example 28, N-[(4-{4-[2-chloro-5-fluoro-4-(1,3-thiazol-4-ylsulfamoyl)phenoxy]-3′-(trifluoromethyl)biphenyl-3-yl}pyridin-2-yl)methyl]-2,5,8,11,14,17,20,23,26,29,32,35-dodecaoxaoctatriacontan-38-amide], the pIC50 was 6.62.

For orientation: inhibition means the drop in the measured response relative to a control, in per cent.
